Experimental data: patent publication US20050014137A1, “Lentivirus assay system including Vif protein activity” (priority 2003, published 2005)
Read-outs that look alike come from different tables or passages of the source.

Key:
HIV-1 = conditions: range of EC50 values reported in the literature, NIH anti-HIV therapeutics database, cited from earlier work
HIV-1 NL4.3 [1] = assay: MT-2 cell-based HIV co-culture assay (HeLa CD4 LTR/lacZ indicator cells, β-Gal reporter); conditions: for EC50: read-out: MT-2 Co-Culture Assay EC50; for EC90: read-out: MT-2 Co-Culture Assay EC90
Experimental: HeLa CD4 LTR/lacZ indicator cells were added to 96-well microtiter plates at cell densities of 1×10^4 cells/well in DMEM or RPMI medium (Life Technologies) containing 10% FBS (HyClone). MT-2 cells were infected with HIV-1 NL4.3 using 656, 1312, 2624, or 5248 TCID50s per 1.6×10^4 cells. Two hours after infection, infected MT-2 cells were washed with RPMI medium (Life Technologies) and added to the 96-well microtiter plates containing the HeLa CD4 LTR/lacZ indicator cells. The final MT2-cell densities in the indicator wells were 1.6×10^4 cells/well.
Virus replication was measured 4 days after infection by quantifying HIV-1 Tat induced beta-galactosidase (β-Gal) activity in the HeLa CD4 LTR/lacZ indicator cells using the Dual-Light™ System according to the manufacturer's protocol (Applied Biosystems). Experiments were performed in replicates of 3 or more.
Half-log dilutions of test compounds were added to HeLa CD4 LTR/lacZ indicator cells seeded in 96-well plates at a cell density of 1×10^4 cells per well in DMEM or RPMI (Life Technologies) containing 10% FBS (HyClone). MT-2 cells were infected with HIV-1 NL4.3 virus at an MOI of 0.08. Two hours after infection, infected cells were washed with RPMI, resuspended in RPMI medium, and added to the 96-well plates containing compound-treated or compound free HeLa CD4 LTR/lacZ indicator cells. Virus replication was measured 3 or 4 days after infection by quantifying HIV-1 Tat induced β-Gal activity in the HeLa CD4 LTR/lacZ indicator cells using the Dual-Light™ System according to the manufacturer's protocol (Applied Biosystems).
Data was expressed as the percent of reporter gene activity in infected compound-treated cells relative to that of infected, compound-free cells.

HIV-1 NL4.3 [2] = assay: PM1 cell-based HIV co-culture assay (HeLa CD4 LTR/lacZ indicator cells, β-Gal reporter); conditions: for EC50: read-out: PM-1 Co-Culture Assay EC50; for EC90: read-out: PM-1 Co-Culture Assay EC90
Excerpt: (§1) The modifications were as follows: PM1 cells were used in place of the MT-2 cells.
as §1

HIV-1 NL4.3 [3] = assay: Direct infection of HeLa CD4 LTR/lacZ indicator cells (known reporter cell assay); assay type: cell-based
Excerpt: This Example compared the present HIV co-culture assay with a known reporter cell-based assay method. This known method involved direct infection of HeLa CD4 LTR/lacZ indicator cells with HIV-1 (Kimpton and Emerman, J. Virol., 66(4):2232-2239 (1992)).
HeLa CD4 LTR/lacZ indicator cells were directly infected with TCID50s identical to those used in the co-culture experiments described in Examples 1 and 2. HeLa CD4 LTR/lacZ indicator cells were infected directly with HIV-1 NL4.3 using 656, 1312, 2624, or 5248 TCID50s per 1×10^4 cells.

[4] = read-out: Literature EC50 (Table 1)
[5] = Human immunodeficiency virus 1, MT2, 96 h
[6] = read-out: Literature EC50 (Table 2)
[7] = Human immunodeficiency virus 1, MT2, 96 h, induced β-Gal activity 4 days after HIV-1 NL4.3 infection, MT-2 cells, MOI 0.08
[8] = Human immunodeficiency virus 1, PM1, 96 h, induced β-Gal activity 4 days after HIV-1 NL4.3 infection, PM-1 cells
[9] = Human immunodeficiency virus 1, PM1, 96 h
[10] = induced β-Gal activity 4 days after HIV-1 NL4.3 infection, MT-2 cells, MOI 0.08
[11] = induced β-Gal activity 4 days after HIV-1 NL4.3 infection, PM-1 cells
[12] = Human immunodeficiency virus 1, 96 h, read-out: inhibition of the reporter signal

| SMILES | EC50 (HIV-1; [4]) [nM] | EC50 (HIV-1 NL4.3 [1]; [5]) [nM] | EC90 (HIV-1 NL4.3 [1]; [5]) [nM] | EC50 (HIV-1; [6]) [nM] | EC50 (HIV-1 NL4.3 [2]; [9]) [nM] | EC90 (HIV-1 NL4.3 [2]; [9]) [nM] | other results |
| --- | --- | --- | --- | --- | --- | --- | --- |
| O=c1[nH]cnc2c1ncn2[C@H]1CC[C@@H](CO)O1 [ddl, didanosine] | 460 to 10000 | 1700 | 14000 |  |  |  |  |
| CC(C)(C)C(=O)OCOP(=O)(COCCn1cnc2c(N)ncnc21)OCOC(=O)C(C)(C)C [ADV, adefovir dipivoxil] | 40 to 500 |  |  | 40 to 500 |  |  | EC50 (HIV-1 NL4.3 [1]; [7]): 39 nM; EC90 (HIV-1 NL4.3 [1]; [7]): 220 nM; EC50 (HIV-1 NL4.3 [2]; [8]): 25 nM; EC90 (HIV-1 NL4.3 [2]; [8]): 150 nM |
| O=C(/C=C(\O)c1nc[nH]n1)c1ccc(Cc2ccc(F)cc2)o1 [S-1360] |  |  |  |  |  |  | EC50 (HIV-1 NL4.3 [1]; [7]): 88 nM; EC90 (HIV-1 NL4.3 [1]; [7]): 1090 nM; EC50 (HIV-1 NL4.3 [2]; [8]): 91 nM; EC90 (HIV-1 NL4.3 [2]; [8]): 280 nM |
| Cc1cn([C@H]2C=C[C@@H](CO)O2)c(=O)[nH]c1=O [d4T, stavudine] | 10 to 8000 | 210 | 3600 |  |  |  |  |
| Cc1cn([C@H]2C[C@H](N=[N+]=[N-])[C@@H](CO)O2)c(=O)[nH]c1=O [AZT, 3′-Azido-3′-deoxythymidine] | 6 to 90 | 31 | 280 | 6 to 90 | 30 | 180 |  |
| CC(C)c1nc(COC(N)=O)n(Cc2ccncc2)c1Sc1cc(Cl)cc(Cl)c1 [CPV, Capravirine] |  | 2.4 | 12 |  |  |  |  |
| CC(C)(C)NC(=O)[C@@H]1CN(Cc2cccnc2)CCN1C[C@@H](O)C[C@@H](Cc1ccccc1)C(=O)N[C@H]1c2ccccc2C[C@H]1O [IDV, indinavir] | 1.1 to 60 | 26 | 55 | 1.1 to 60 | 12 | 47 |  |
| CC(C)(C)NC(=O)[C@@H]1C[C@@H]2CCCC[C@@H]2CN1C[C@@H](O)[C@H](Cc1ccccc1)NC(=O)[C@H](CC(N)=O)NC(=O)c1ccc2ccccc2n1 [SQV, saquinavir] | 0.2 to 57 | 12 | 26 | 0.2 to 57 | 5.3 | 34 |  |
| O=C(NCc1ccc(F)cc1)c1nc(N2CCCCS2(=O)=O)c2cccnc2c1O [L-870810] | 4 to 8 |  |  | 4 to 8 |  |  | EC50 (HIV-1 NL4.3 [1]; [10]): 1.4 nM; EC90 (HIV-1 NL4.3 [1]; [10]): 5.9 nM; EC50 (HIV-1 NL4.3 [2]; [11]): 0.61 nM; EC90 (HIV-1 NL4.3 [2]; [11]): 2.4 nM |
| Cc1c(O)cccc1C(=O)N[C@@H](CSc1ccccc1)[C@H](O)CN1C[C@H]2CCCC[C@H]2C[C@H]1C(=O)NC(C)(C)C [NFV, nelfinavir] | 10 to 43 | 18 | 100 | 10 to 43 | 10 | 58 | inhibition of the reporter signal (HIV-1 NL4.3 [3]; inhibitor at 10×EC90): 42%; inhibition at 1 µM (HIV-1 NL4.3 [1]; [12]): ~98%; inhibition of the reporter signal (HIV-1 NL4.3 [2]; PM1 co-culture, inhibitor at ≧10×EC90): 99% |
| Cc1ccnc2c1NC(=O)c1cccnc1N2C1CC1 [NVP, Nevirapine] | 24 to 48 |  |  | 24 to 48 |  | 260 | EC50 (HIV-1 NL4.3 [1]; [7]): 46 nM; EC90 (HIV-1 NL4.3 [1]; [7]): 380 nM; EC50 (HIV-1 NL4.3 [2]; [8]): 12 nM |
| O=C1Nc2ccc(Cl)cc2[C@@](C#CC2CC2)(C(F)(F)F)O1 [EFV, efavirenz] |  | 1.4 | 4.3 |  | 0.19 | 6.2 | inhibition of the reporter signal (HIV-1 NL4.3 [3]; inhibitor at >10×EC90): > 99%; inhibition at 0.1 µM (HIV-1 NL4.3 [1]; [12]): > 99% |
| O=C(O)C1=CC(=C(c2ccc(O)c(C(=O)O)c2)c2ccc(O)c(C(=O)O)c2)C=CC1=O [ATA, aurintricarboxylic acid] |  | 3300 | 9900 |  |  |  |  |
| CC(C)Nc1cccnc1N1CCN(C(=O)c2cc3cc(NS(C)(=O)=O)ccc3[nH]2)CC1 [DLV, delavirdine] | 0.1 to 10 | 34 | 110 | 0.1 to 10 | 5.9 | 100 |  |
| Nc1ccn([C@@H]2CS[C@H](CO)O2)c(=O)n1 [3TC, lamivudine] |  | 420 | 5500 |  | 180 | 1700 |  |
